Non-standard residues stand in square brackets, D forms with d. No end group written: not given here. FAM = fluorescent dye label; Ahx = NCCCCCC(=O)O; βAla = NCCC(=O)O
Test system: HeLa cells
Assay: Evaluation of cell-penetrating function by flow cytometry (mean fluorescent intensity)
Type: cell-based, human
Details: for MFI (mean fluorescent intensity of measurement target cell populations): 10 μM final concentration, 20-hour incubation at 37° C., 0.5% DMSO, flow cytometer FL2, 10,000 cells
Procedure: HeLa cells (established cell lines derived from human cervical cancer cells) were used as eukaryotic cells, and cell-penetrating functions of three samples (constructs for introducing a foreign substance) obtained in Example 1 were examined
In this example, Examples 1 to 3 were set according to the kind of peptide used as shown below. In addition, as Examples 4 and 5, peptide-free groups were set. The following test was performed in a total of 5 categories. Here, the concentration described below was a final concentration during the following 20-hour incubation.
Here, in all of the examples, the concentration of DMSO was adjusted to 0.5% during the following 20-hour incubation. In addition, the number of test wells (n) in each of the above examples was set to 3.
HeLa cells were cultured using a mixed solution containing a 90% Eagle's MEM medium (containing 0.1% non-essential amino acid, 2 mM of L-glutamine, 1 mM of sodium pyruvate, and 1.5 g/L of sodium bicarbonate) and 10% serum (FBS: fetal bovine serum) as a culture solution.
The HeLa cells were subjected to a trypsin treatment with a 0.25% trypsin/EDTA solution at 37° C. for 3 minutes. After the above treatment, trypsin was inactivated using the culture solution. Centrifugation was performed and the centrifugal supernatant was removed. The cell pellet obtained by centrifugation was suspended in a fresh culture solution. A cell suspension (sample for introducing a foreign substance) having a cell concentration of about 1×10^5 cells/well was prepared from the culture solution, and 2 ml thereof was seeded in each well of a commercially available 6-well plate (commercially available from Iwaki). Then, the cells were cultured at 37° C. for 4 hours under 5% CO2 conditions, and adhesion of the seeded cells was confirmed.
Then, 1 ml of the culture supernatant was removed from the well after the culture for 4 hours, and a culture solution containing Sample 1 at a concentration of 20 μM was added. That is, the final sample concentration in the well was 10 μM.
The plate was then incubated at 37° C. for 20 hours under 5% CO2 conditions.
After such incubation for 20 hours, the cells were washed twice with PBS at 1 ml/well. Then, the cells in the wells were treated with a 0.25% trypsin/EDTA solution at 200 μL/well at 37° C. for 3 minutes. Then, a culture solution at 400 μL/well was additionally added and the cells were collected in the tube. Then, the wells were additionally washed with PBS at 600 μL/well, and the cells remaining in the wells were collected in the above tube. The tube was centrifuged at 4° C. for 5 minutes under 210×g conditions. The centrifugal supernatant was removed, and the cell pellet was suspended (washed) in 1 ml PBS, and centrifuged under the same conditions as above. This operation was repeated twice.
Then, the collected cells were analyzed using a flow cytometer. […]
Using the above flow cytometer, gating was performed based on forward scatter (FSC) and side scatter (SSC), and a gate was set for a measurement target cell population. Then, the fluorescent intensity of the cell population within such a gate was measured. The fluorescent intensity of 10,000 measurement target cells was measured for each measurement sample. […] The measurement results were analyzed using commercially available analysis software “FlowJo (registered trademark)” (commercially available from TreeStar), and a mean fluorescent intensity (MFI) of measurement target cell populations was obtained. […]

Substance | MFI (mean fluorescent intensity of measurement target cell populations) | cell permeability (comparison of MFI among samples) (10 μM, 20-hour incubation)
5(6)-Carboxyfluorescein [Example 4] | 9.7 | 
FAM-KKRTLRKNDRKKR-CONH2 ({FAM}-KKRTLRKNDRKKR-NH2) [Example 2] | 24 | 
FAM-TLKERCLQVVRSLVKKKRTLRKNDRKKR-CONH2 ({FAM}-TLKERCLQVVRSLVKKKRTLRKNDRKKR-NH2) [Example 1] | 8.2 × 10^2 | the best
RXRRBRRXRYQFLIRXRBRXRB-FAM (R[Ahx]RR[βAla]RR[Ahx]RYQFLIR[Ahx]R[βAla]R[Ahx]R[βAla]-{FAM}) [Example 3, X aminohexanoic acid, B β-alanine] | 4.0 × 10^2 | 

Source: patent publication US20220008547A1, “Carrier Peptide Fragment and use Thereof” (TOAGOSEI CO., LTD, priority 2020, published 2022)
